Data on five compounds can be found in patent publication EP4644375A1, “SUBSTITUTED HYDROQUINOLINES FOR THE TREATMENT OF GLIOBLASTOMA MULTIFORME” (Molius Saglik Teknolojileri Anonim Sirketi, priority 2024, dated 2025).

“Also recorded” adds a separate entry of the source.

As a reminder, the inhibition is the drop in the measured response relative to a control, in per cent. Low values mean a response near the control, high ones a response far below the control.

For data set [1], the system named is GBM xenograft rat model. The data set can be described thus: In vivo GBM rat model: histopathological examination of brain tissues. To be noted: H&E, GBM rats, 30 mg/kg oral, 5 days. As to the method: (§1) An in Vivo study was performed to assess the therapeutic potential of TR-G002, TR-G045, TR-G053, TR-G066, TR-G071 and TR-G091 in the GBM xenograft rat model when administered orally by gavage for five consecutive days. 152 female rats of the Sprague Dawley strain were allocated to the study. Six groups of sixteen females were given dose of 30 mg/kg of the respective target compounds. […] The study design can be seen in Fig. 11 and Table 10.
(§2) Female Sprague Dawley rats (age: 6-8 weeks; weight: 255-310 g; ATADEM, Erzurum, Turkey) were utilized in the study. Rats underwent anaesthesia with 5% isoflurane, maintained at 2% isoflurane (1 L/min oxygen), and were positioned in a stereotactic frame for cell implantation (Stoelting Co., IL). […] A burr hole was drilled 1-mm anterior and 3-mm lateral to the right bregma. A microsyringe (Hamilton 1700 series) containing 5×10^4 U87-MG cells suspended in 5 µL of medium at 37 °C was advanced to a depth of 4 mm into the brain. The cells were injected at a rate of 3 µL/ min. Bone wax was used to fill the burr hole to prevent cell suspension reflux. The incision was sutured, and 1 mL of Meloxicam (5 mg/mL; Metacam, Boehringer Ingelheim Vetmedica, Ingelheim, Germany) was administered via a subcutaneous injection.
(§3) Fourteen days after inoculation, tumor development in rats was visualized and confirmed through magnetic resonance imaging (MRI). Rats confirmed to have developed tumors were then distributed into six different groups for treatment. […] 9 days after the final treatment dose, the rats underwent another MRI scan and blood and brain samples were taken under anaesthesia.
Brain tissue samples were fixed in a 10% buffered formaldehyde solution. After fixation, the tissues were processed through graded alcohol and xylene series and embedded in paraffin blocks. Sections of 5 µm thickness were taken from the paraffin blocks at intervals of 50-100 µm. Hematoxylin and eosin staining was performed on these sections to evaluate histopathological changes. Histopathological findings included tumor focus size, necrotic area, vascular proliferation, and cellular proliferation patterns. Tumor focus size was categorized as follows based on the diameter measured with a 4X objective on the microscope: >3500 µm was considered very severe, 3499-2000 µm severe, 1999-1000 µm moderate, 999-500 µm mild, and <500 µm very mild. Necrotic area size was classified based on the diameter of necrosis: >1500 µm as very severe, 1499-1000 µm severe, 999-500 µm moderate, 499-200 µm mild, and <199 µm very mild.

A short description of data set [2]: In vivo GBM rat model: haematology. Particulars: GBM rats, 30 mg/kg oral, 5 days, blood at necropsy. As for the experimental part:
The parameters that were analysed can be seen in Table 11.

Data set [3] concerns GBM xenograft rat model. The data set can be described thus: In vivo GBM rat model: MRI analysis of tumor volumes. Particulars: GBM rats, 30 mg/kg oral, 5 days; for tumor size: MRI 14th vs 28th day; for antitumor activities, order: ranking. As for the experimental part: as §1, §2, §3
The anaesthetic was administered via an intraperitoneal route on animals fixed in the supine position with parallel hind limbs. MRI was performed using a 3 Tesla clinical scanner (Magnetom Skyra; Siemens Healthineers, Erlangen, Germany). Rats were placed in the prone position. T2-SPACE (sampling perfection with application-optimized contrast using different flip angle Evolution) sequence was obtained to view the brain in coronal and transverse planes. (TR: 6000 ms, TE: 100 ms, voxel size: 0.5 × 0.5 × 1 mm, 34 slices, slice thickness: 2 mm, slice spacing: 0.6 mm). The volume measurements of brain tumors were performed manually. One radiologist calculated the tumour volume - manually measuring tumour length (L), width (W), and height (H) - and then calculated the tumour volume using the formula 0.5236 × L × W × H (Stuppner S et al., 2020).

The nature of data set [4]: Peripheral blood micronucleus assay. To be noted: for MN frequency: GBM rats, 30 mg/kg oral, 5 days, 1000 cells per animal evaluated. In kind it is in vivo, Rat. As to the method:
Blood smears were made on clean microscope slides, allowed to air-dry, treated with methanol for fixation, and then stained with Giemsa (10% in 0.1 mM of sodium phosphate buffer, pH 6.8) for 10 min. After washing with PBS, the slides were examined under a light microscope. The frequencies of micronuclei (MN) were calculated by evaluating 1000 cells per animal.

In a further data set the test system is U87-MG human glioma cell. Nature of the data set: Cell proliferation analysis (MTT). Particulars: for activity at 10 µM / inhibition at 10 µM: Homo sapiens, U-87 MG, 48 h, two days, MTT. Format: cell-based.
The subject of data set [5] is U138-MG human glioma cell. Nature of the data set: Cell proliferation analysis (MTT). Format: cell-based. To be noted: for activity at 10 µM / inhibition at 10 µM: Homo sapiens, 48 h, two days, MTT.
Data set [6] concerns GBM xenograft rat model. Nature of the data set: In vivo GBM rat model: survival. Particulars: GBM rats, 30 mg/kg oral gavage once daily for 5 days, 14th to 28th day, compared to untreated GBM rats. As to the method:
as §1, §2, §3

On to `CC(C)CCOc1ccc2c(c1)CCC(=O)N2` [TR-G002, 6-(isopentyloxy)-3,4-dihydroquinolin-2(1H)-one], for which, in the data set on GBM xenograft rat model [1], the “cellular proliferation / mitosis” value is reported as “mild”, the “tumor focus (description)” value is “significantly reduced tumor focus” and the vascular proliferation entry is given as “mild”. In data set [2], this compound gave an HCT of 48.53%, an HGB of 14.88 g/dL, an MCH of 18.43 pg and an MCHC of 30.71 g/dL. In data set [2], the MCV was 59.99 fL, the PLT was 805.75 10^9 /L, the RBC is on record as 8.11 10^12/L and the WBC is on record as 3.65 10^9/L. Moreover, in the data set on GBM xenograft rat model [3], the tumor size entry was “small increase in tumor size” and the “antitumor activities, order” value is “TR-G066> TR-G045> TR-G002>TMZ> TR-G091> TR-G053> TR-G071”. The MN frequency in data set [4] is 11.62 ± 2.34. Besides, in the data set with U87-MG human glioma cell, the activity at 10 µM came out at 48% and the inhibition at 10 µM was 52%. In data set [5], this compound gave an activity at 10 µM of 52% and an inhibition at 10 µM of 48%. The survival result with GBM xenograft rat model [6] (30 mg/kg) is “significantly improved survival; also recorded: prolonged survival”.

For the compound `O=C1CCc2cc(OS(=O)(=O)c3cccc4ccccc34)ccc2N1` [TR-G045, 2-oxo-1,2,3,4-tetrahydroquinolin-6-yl naphthalene-1-sulfonate], in the data set with GBM xenograft rat model [1], the “cellular proliferation / mitosis” value is “moderate mitosis”, the “necrotic cells (description)” value is “Necrotic cells were present in the central regions”, the “tumor focus size (grade)” value is on record as “moderate (1999-1000 µm moderate)” and the vascular proliferation entry is on record as “vascular proliferation in the vicinity of healthy tissue”. In data set [2], this compound had an HCT of 47.24%, an HGB of 14.12 g/dL, an MCH of 18.46 pg and an MCHC of 30.54 g/dL. Besides, in data set [2], the MCV is given as 60.48 fL, the PLT is reported as 845.60 10^9 /L, the RBC is listed as 8.34 10^12/L and the WBC was 4.32 10^9/L. Further, in the data set on GBM xenograft rat model [3], the tumor size entry was “decrease in tumor size” and the “antitumor activities, order” value is given as “TR-G066> TR-G045> TR-G002>TMZ> TR-G091> TR-G053> TR-G071”. This compound also registered an MN frequency in data set [4] of 12.05 ± 1.78. In the data set with U87-MG human glioma cell, the activity at 10 µM is 71% and testing at 10 µM gave an inhibition of 29%. Moreover, in data set [5], the activity at 10 µM is 71% and the inhibition at 10 µM was 30%. Further, the survival result with GBM xenograft rat model [6] (30 mg/kg) is “significantly improved survival; also recorded: prolonged survival”.

Regarding `C=Cc1ccc(COc2ccc3c(c2)CCC(=O)N3)cc1` [TR-G053, 6-((4-vinylbenzyl)oxy)-3,4-dihydroquinolin-2(1H)-one], in the data set on GBM xenograft rat model [1], the “cellular proliferation / mitosis” value is listed as “intense mitosis around blood vessels”; the “necrosis (grade)” value is given as “Severe”; the “tumor focus (description)” value was “tumor focus including both grey and white matter”. In data set [2], this compound gave an HCT of 48.77%, an HGB of 14.67 g/dL, an MCH of 17.83 pg and an MCHC of 30.07 g/dL. Moreover, in data set [2], the MCV is recorded as 59.33 fL, the PLT was 823.33 10^9 /L, the RBC is 8.23 10^12/L and the WBC was 3.40 10^9/L. Moreover, the “antitumor activities, order” value with GBM xenograft rat model [3] is given as “TR-G066> TR-G045> TR-G002>TMZ> TR-G091> TR-G053> TR-G071”. Also, in data set [4], the MN frequency was determined as 9.67 ± 1.21. The “MN frequency (comparison)” value in data set [4] (treated GBM rats) is listed as “lowest MN frequency”. Further, in the data set with U87-MG human glioma cell, the lowest cell proliferation is recorded as 42%, the activity at 10 µM turned out to be 42% and the inhibition at 10 µM was found to be 58%. Besides, in the data set on U87-MG human glioma cell (ranking), the “top 5 target compounds whose treatment resulted in the lowest proliferation” value is listed as “top 5”. In data set [5], this compound displayed an activity at 10 µM of 53% and an inhibition at 10 µM of 47%. For the same compound, in the data set on GBM xenograft rat model [6], the survival result was “prolonged survival”.

As for `O=C(COc1ccc2c(c1)CCC(=O)N2)N/N=C/c1cnc(-c2ccc(Cl)cc2)nc1` [TR-G066, (E)-N'-((2-(4-chlorophenyl)pyrimidin-5-yl)methylene)-2-((2-oxo-1,2,3,4-tetrahydroquinolin-6-yl)oxy)acetohydrazide], in the data set with GBM xenograft rat model [1], the “tumor focus (description)” value is on record as “few tumor cells, particularly around blood vessels, rather than a distinct tumor focus shape”. In addition, in data set [2], the HCT was found to be 46.30%, the HGB worked out at 15.00 g/dL, the MCH came out at 18.51 pg and the MCHC is 31.11 g/dL. Besides, in data set [2], the MCV is on record as 59.60 fL, the PLT is reported as 799.14 10^9 /L, the RBC was 8.12 10^12/L and the WBC was 4.57 10^9/L. Further, in the data set on GBM xenograft rat model [3] (30 mg/kg), the tumor size entry is recorded as “decrease in tumor size; also recorded: reduced the tumor size”. Moreover, the “antitumor activities, order” value with GBM xenograft rat model [3] is given as “TR-G066> TR-G045> TR-G002>TMZ> TR-G091> TR-G053> TR-G071”. This compound came in with an MN frequency in data set [4] of 10.91 ± 1.89. Testing at 10 µM in the data set with U87-MG human glioma cell gave an inhibition of 33%. In addition, in data set [5], the lowest cell proliferation was 39% and the inhibition at 10 µM came out at 62%. The survival result in the data set with GBM xenograft rat model [6] (30 mg/kg) is listed as “significantly improved survival; also recorded: highest survival; also recorded: prolonged survival”.

In the case of `C=CCOC(=O)COc1ccc2c(c1)CCC(=O)N2` [TR-G071, Allyl 2-((2-oxo-1,2,3,4-tetrahydroquinolin-6-yl)oxy)acetate], in the data set with GBM xenograft rat model [1], the “cellular proliferation / mitosis” value is on record as “moderate levels of mitosis”, the “necrosis (grade)” value is “moderate (999-500 µm moderate)”, the “tumor focus (description)” value is given as “expanded tumor focus” and the vascular proliferation result is given as “moderate”. Moreover, in data set [2], the HCT was 48.15%, the HGB was determined as 14.15 g/dL, the MCH was found to be 17.65 pg and the MCHC turned out to be 31.20 g/dL. In data set [2], the MCV worked out at 58.65 fL, the PLT was 823.00 10^9 /L, the RBC is given as 8.56 10^12/L and the WBC is reported as 3.82 10^9/L. The “antitumor activities, order” value in the data set with GBM xenograft rat model [3] was “TR-G066> TR-G045> TR-G002>TMZ> TR-G091> TR-G053> TR-G071”. The MN frequency in data set [4] came out at 12.43 ± 2.09. Also, in the data set on U87-MG human glioma cell, the activity at 10 µM was found to be 97% and the inhibition at 10 µM came out at 3%. For the same compound, in data set [5], the activity at 10 µM was determined as 100% and the inhibition at 10 µM came out at 0%. Also, the survival result with GBM xenograft rat model [6] is recorded as “prolonged survival”.
